Article PMC8624998, “Synthesis and Antiproliferative Evaluation of 3-Chloroazetidin-2-ones with Antimitotic Activity: Heterocyclic Bridged Analogues of Combretastatin A-4” (Pharmaceuticals, 2021)

System: microtubule network of MCF-7 cells
Experiment: Immunofluorescence (confocal) of microtubule network
Assay type: cell-based, human
Settings: MCF-7, 16 h; 10n 0.05, 0.1, 0.5 μM; CA-4 10 nM; paclitaxel 1 μM
Description: Subsequently, the effect of the representative compound 10n on the organisation of microtubule cytoskeleton of MCF-7 cells was also determined by confocal microscopy using an anti-tubulin antibody (Figure 8). […] The MCF-7 cell nuclei (stained blue) were also clearly observed (Figure 8A). […] The treatment of MCF-7 breast cancer cells with CA-4 tubulin-targeting agents has been reported to result in the formation of multiple micronuclei and mitotic catastrophes.
Confocal microscopy was used to study the effects on MCF-7 cytoskeleton following treatment with compound 10n following the protocols previously reported. For each experiment, all images were collected on the same day using identical parameters. MCF-7 cells were seeded (1 × 10^5 cells/mL) on eight chamber glass slides. Cells were either untreated or treated with vehicle (1% ethanol (v/v)), CA-4 (10 nM), Paclitaxel (1 μM) and β-lactam compound 10n at 50 nM, 100 nM and 500 nM concentrations for 16 h. The cells were then gently washed in PBS and then fixed for 30 min with 100% ice-cold MeOH. Cells were washed three times in PBS for 10 min and then permeabilised in 0.5% Triton X-100. The cells were subsequently washed in PBS containing 0.1% Tween (PBST), and then blocked in bovine serum albumin (5%) diluted in PBST. Cells were then incubated with a mouse monoclonal anti-α-tubulin−FITC antibody (clone DM1A) (1:200) for 2 h at 20 °C. Following washes in PBST, cells were incubated with Alexa Fluor 488 dye (1:500) for 1 h at 20 °C. Following further washes in PBST, the cells were mounted in Ultra Cruz Mounting Media, which contained 4,6-diamino-2-phenolindol dihydrochloride (DAPI). The images were photographed using Leica SP8 confocal microscopy with the Leica application suite X software program. Experiments were performed on three independent occasions.
Figure 8 Compound 10n depolymerises the microtubule network of MCF-7 breast cancer cells. Cells were treated with (A) vehicle control ([…]), (B) CA-4 (10 nM), (C) paclitaxel (1 μM) and compound 10n, (D) (50 nM), (E) (100 nM) and (F) (500 nM) for 16 h. […]

SMILES: CC(=O)O[C@H]1C(=O)[C@@]2(C)[C@H]([C@H](OC(=O)c3ccccc3)[C@]3(O)C[C@H](OC(=O)[C@H](O)[C@@H](NC(=O)c4ccccc4)c4ccccc4)C(C)=C1C3(C)C)[C@]1(OC(C)=O)CO[C@@H]1C[C@@H]2O [paclitaxel]
- effect on microtubule network: hyper-polymerisation of tubulin
